Reference: ChEMBL document CHEMBL3046437, “Synthesis, characterization and biological evaluation of some pyridine and quinoline fused chromenone derivatives” (2012)
Values after ≈ are worked out from the molar mass of the structure shown. Active and inactive are the calls of the source. The calls are words filed in the database; no cut-off is given here.

Experiments:
Format in all cases: functional
[1] = test system: Pseudomonas fluorescens; assay: Antibacterial activity against Pseudomonas fluorescens S 97 after 24 to 48 hr by two-fold serial dilution method
[2] = test system: Streptococcus pyogenes; assay: Antibacterial activity against Streptococcus pyogenes ATCC 19615 after 24 to 48 hr by two-fold serial dilution method
[3] = test system: Staphylococcus aureus; assay: Antibacterial activity against Staphylococcus aureus ATCC 25923 after 24 to 48 hr by two-fold serial dilution method
[4] = test system: Staphylococcus aureus; assay: Antibacterial activity against Staphylococcus aureus ATCC 25923 at 100 ug/ml after 24 hr by agar diffusion method; details: ATCC 25923, 24 h, read-out: DIZ
[5] = test system: Pseudomonas; assay: Antibacterial activity against Pseudomonas phaseolicola GSPB 2828 after 24 to 48 hr by two-fold serial dilution method
[6] = test system: Pseudomonas; assay: Antibacterial activity against Pseudomonas phaseolicola GSPB 2828 at 100 ug/ml after 24 hr by agar diffusion method; details: GSPB 2828, 24 h, read-out: DIZ
[7] = test system: Streptococcus pyogenes; assay: Antibacterial activity against Streptococcus pyogenes ATCC 19615 at 100 ug/ml after 24 hr by agar diffusion method; details: ATCC 19615, 24 h, read-out: DIZ
[8] = test system: Pseudomonas fluorescens; assay: Antibacterial activity against Pseudomonas fluorescens S 97 at 100 ug/ml after 24 hr by agar diffusion method; details: for zone of inhibition at 100 µg/mL: S 97, 24 h, read-out: DIZ
[9] = test system: Fusarium oxysporum; assay: Antifungal activity against Fusarium oxysporum ATCC 16417 at 100 ug/ml after 48 hr by agar diffusion method; details: for zone of inhibition at 100 µg/mL: ATCC 16417, 48 h, read-out: DIZ
[10] = test system: Aspergillus niger; assay: Antifungal activity against Aspergillus niger MTCC 282 after 24 to 48 hr by two-fold serial dilution method
[11] = test system: Aspergillus niger; assay: Antifungal activity against Aspergillus niger MTCC 282 at 100 ug/ml after 48 hr by agar diffusion method; details: for zone of inhibition at 100 µg/mL: MTCC 282, 48 h, read-out: DIZ
[12] = test system: Fusarium oxysporum; assay: Antifungal activity against Fusarium oxysporum ATCC 16417 after 24 to 48 hr by two-fold serial dilution method

Row | SMILES | MIC [1] | MIC [2] | MIC [3] | MIC [5] | MIC [10] | MIC [12] | zone of inhibition at 100 µg/mL [4] | zone of inhibition at 100 µg/mL [6] | zone of inhibition at 100 µg/mL [7] | zone of inhibition at 100 µg/mL [8] | diameter of the inhibition zone (DIZ) [9] | zone of inhibition at 100 µg/mL [11] | zone of inhibition at 100 µg/mL [9] | diameter of the inhibition zone (DIZ) [11] | diameter of the inhibition zone (DIZ) [8]
1 | O=C(N[C@H](CO)[C@H](O)c1ccc([N+](=O)[O-])cc1)C(Cl)Cl [CHLORAMPHENICOL] | 6.25 µg/mL (≈ 19.3 µM) | 3.12 µg/mL (≈ 9.67 µM) | 3.12 µg/mL (≈ 9.67 µM) | 6.25 µg/mL (≈ 19.3 µM) |  |  | 42 mm | 37 mm | 44 mm | 38 mm |  |  |  |  | 
2 | Cc1ccc2oc(=O)c3cc4c(nc3c2c1)CCC4 | 25 µg/mL (≈ 99.5 µM) | 50 µg/mL (≈ 199 µM) | 50 µg/mL (≈ 199 µM) | 50 µg/mL (≈ 199 µM) | 50 µg/mL (≈ 199 µM) | 12.5 µg/mL (≈ 49.7 µM) | 18 mm | 15 mm | 19 mm | 17 mm |  | 24 mm | 30 mm |  | 
3 | Cc1ccc2oc(=O)c3cc4c(nc3c2c1)-c1ccccc1CC4 | 25 µg/mL (≈ 79.8 µM) | 25 µg/mL (≈ 79.8 µM) | 50 µg/mL (≈ 160 µM) | 25 µg/mL (≈ 79.8 µM) | 50 µg/mL (≈ 160 µM) | 50 µg/mL (≈ 160 µM) | 23 mm | 18 mm | 17 mm | 18 mm |  | 18 mm | 17 mm |  | 
4 | O=c1oc2ccccc2c2nc3c(cc12)CCCC3 | 25 µg/mL (≈ 99.5 µM) | 50 µg/mL (≈ 199 µM) | 25 µg/mL (≈ 99.5 µM) | 25 µg/mL (≈ 99.5 µM) | 50 µg/mL (≈ 199 µM) | 12.5 µg/mL (≈ 49.7 µM) | 22 mm | 20 mm | 22 mm | 17 mm |  | 22 mm | 26 mm |  | 
5 | C[C@@H]1C[C@@H]([C@H](O)CC2CC(=O)NC(=O)C2)C(=O)[C@@H](C)C1 [CYCLOHEXIMIDE] |  |  |  |  | 6.25 µg/mL (≈ 22.2 µM) | 3.12 µg/mL (≈ 11.1 µM) |  |  |  |  |  | 42 mm | 43 mm |  | 
6 | O=c1oc2ccccc2c2nc3c(cc12)CCC3 | 50 µg/mL (≈ 211 µM) | 25 µg/mL (≈ 105 µM) | 50 µg/mL (≈ 211 µM) | 50 µg/mL (≈ 211 µM) | > 100 µg/mL | 50 µg/mL (≈ 211 µM) | 19 mm | 14 mm | 20 mm | 19 mm |  | 10 mm | 18 mm |  | 
7 | Cc1cccc2c1oc(=O)c1cc3c(nc12)CCCC3 | 25 µg/mL (≈ 94.2 µM) | 25 µg/mL (≈ 94.2 µM) | 12.5 µg/mL (≈ 47.1 µM) | 25 µg/mL (≈ 94.2 µM) | 50 µg/mL (≈ 188 µM) | 100 µg/mL (≈ 377 µM) | 27 mm | 19 mm | 18 mm | 20 mm |  | 25 mm | 10 mm |  | 
8 | O=c1oc2ccc(Cl)cc2c2nc3c(cc12)CCCC3 |  | 12.5 µg/mL (≈ 43.7 µM) | 12.5 µg/mL (≈ 43.7 µM) | 50 µg/mL (≈ 175 µM) | 50 µg/mL (≈ 175 µM) | 50 µg/mL (≈ 175 µM) | 24 mm | 18 mm | 23 mm |  |  | 20 mm | 16 mm |  | inactive

Further lines, with some results ahead:

Row | MIC [1] | MIC [2] | MIC [3] | MIC [5] | MIC [10] | MIC [12] | SMILES | zone of inhibition at 100 µg/mL [4] | zone of inhibition at 100 µg/mL [6] | zone of inhibition at 100 µg/mL [7] | zone of inhibition at 100 µg/mL [8] | diameter of the inhibition zone (DIZ) [9] | zone of inhibition at 100 µg/mL [11] | zone of inhibition at 100 µg/mL [9] | diameter of the inhibition zone (DIZ) [11] | diameter of the inhibition zone (DIZ) [8]
9 | 50 µg/mL (≈ 199 µM) | 12.5 µg/mL (≈ 49.7 µM) | 12.5 µg/mL (≈ 49.7 µM) | 25 µg/mL (≈ 99.5 µM) | 12.5 µg/mL (≈ 49.7 µM) |  | Cc1cccc2c1oc(=O)c1cc3c(nc12)CCC3 | 25 mm | 19 mm | 22 mm | 14 mm | inactive | 28 mm |  |  | 
10 | 25 µg/mL (≈ 83.5 µM) | 12.5 µg/mL (≈ 41.8 µM) | 25 µg/mL (≈ 83.5 µM) | 50 µg/mL (≈ 167 µM) | 12.5 µg/mL (≈ 41.8 µM) | 100 µg/mL (≈ 334 µM) | O=c1oc2ccccc2c2nc3c(cc12)CCc1ccccc1-3 | 20 mm | 16 mm | 19 mm | 19 mm |  | 25 mm | 10 mm |  | 
11 | 50 µg/mL (≈ 188 µM) | 12.5 µg/mL (≈ 47.1 µM) | 50 µg/mL (≈ 188 µM) | 50 µg/mL (≈ 188 µM) |  | 50 µg/mL (≈ 188 µM) | Cc1ccc2oc(=O)c3cc4c(nc3c2c1)CCCC4 | 21 mm | 14 mm | 25 mm | 16 mm |  |  | 17 mm | inactive | 
12 | 50 µg/mL (≈ 150 µM) | 12.5 µg/mL (≈ 37.5 µM) | 12.5 µg/mL (≈ 37.5 µM) | 50 µg/mL (≈ 150 µM) | 100 µg/mL (≈ 300 µM) | 12.5 µg/mL (≈ 37.5 µM) | O=c1oc2ccc(Cl)cc2c2nc3c(cc12)CCc1ccccc1-3 | 26 mm | 15 mm | 23 mm | 16 mm |  | 8 mm | 23 mm |  | 
13 | 12.5 µg/mL (≈ 46 µM) | 12.5 µg/mL (≈ 46 µM) | 12.5 µg/mL (≈ 46 µM) | 100 µg/mL (≈ 368 µM) | 25 µg/mL (≈ 92 µM) | > 100 µg/mL | O=c1oc2ccc(Cl)cc2c2nc3c(cc12)CCC3 | 26 mm | 14 mm | 24 mm | 20 mm |  | 32 mm | 8 mm |  | 
14 | 50 µg/mL (≈ 160 µM) | 12.5 µg/mL (≈ 39.9 µM) | 12.5 µg/mL (≈ 39.9 µM) | 50 µg/mL (≈ 160 µM) | 50 µg/mL (≈ 160 µM) | 100 µg/mL (≈ 319 µM) | Cc1cccc2c1oc(=O)c1cc3c(nc12)-c1ccccc1CC3 | 25 mm | 14 mm | 20 mm | 15 mm |  | 15 mm | 11 mm |  | 
15 | 6.25 µg/mL (≈ 15.8 µM) | 6.25 µg/mL (≈ 15.8 µM) | 6.25 µg/mL (≈ 15.8 µM) | 6.25 µg/mL (≈ 15.8 µM) |  |  | CC(=O)OCC1=C(C(=O)O)N2C(=O)[C@@H](NC(=O)Cc3cccs3)[C@H]2SC1 [CEPHALOTHIN] | 36 mm | 38 mm | 37 mm | 37 mm |  |  |  |  | 
